Converted amounts (≈) assume the structure as drawn.
Assays:
[1] = system: HL60 Promyelocytic leukemia; test: Cytotoxicity against human cell lines grown in culture, MTT assay; type: cell-based; conditions: 72 hr continuous incubation, 5% human serum, relative cell growth by MTT, means of duplicate experiments
Text: (§1) The data below are means of duplicate experiments with similar results.

[2] = system: K562 Erythroleukemia; test: as above; type: cell-based; conditions: 72 hr continuous incubation, 5% human serum, relative cell growth by MTT, means of duplicate experiments
Text: as §1

[3] = system: KARPAS-291 Lymphoma; test: as above; type: cell-based; conditions: 72 hr continuous incubation, 5% human serum, relative cell growth by MTT, means of duplicate experiments
Text: as §1

[4] = target: T1, transcobalamin II (TCII) (Homo sapiens, UniProt P20062); test: Binding to transcobalamin II; conditions: compared with control vitamin B12; listed as p-iodohippuric acid TFP ester conjugated to the e-cyanocobalamin via the 4,7,10-
T1 sequence (P20062 19-427): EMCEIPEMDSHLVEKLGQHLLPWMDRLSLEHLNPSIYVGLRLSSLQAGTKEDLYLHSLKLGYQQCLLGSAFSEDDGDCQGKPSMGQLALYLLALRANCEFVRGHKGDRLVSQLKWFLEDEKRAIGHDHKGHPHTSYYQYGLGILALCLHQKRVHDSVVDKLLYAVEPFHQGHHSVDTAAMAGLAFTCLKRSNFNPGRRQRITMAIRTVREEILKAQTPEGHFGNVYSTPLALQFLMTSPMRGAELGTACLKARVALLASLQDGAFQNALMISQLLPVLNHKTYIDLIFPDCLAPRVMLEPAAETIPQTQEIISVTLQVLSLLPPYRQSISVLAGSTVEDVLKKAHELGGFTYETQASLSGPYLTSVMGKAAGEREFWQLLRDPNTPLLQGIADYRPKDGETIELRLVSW
Description: This conjugate may be used as a standard for future B12 derivatives because of its higher rate of binding to TCII, which is required for efficient delivery to the appropriate receptors.
The p-iodohippuric acid TFP ester conjugated to the e-cyanocobalamin via the 4,7,10-trioxa-1,13-tridecanediamine linker was assessed for binding to transcobalamin II (TCII).

[5] = Bioactivity of cobalamin conjugates (test not described)
[6] = cited from earlier work
[7] = between pH about 4 and 7; cited from earlier work

## CC(=O)O[C@H]1C(=O)[C@@]2(C)[C@H]([C@H](OC(=O)c3ccccc3)[C@]3(O)C[C@H](OC(=O)[C@H](O)[C@@H](NC(=O)c4ccccc4)c4ccccc4)C(C)=C1C3(C)C)[C@]1(OC(C)=O)CO[C@@H]1C[C@@H]2O [Taxol, Paclitaxel]
[1]; HL-60
  IC50: 0.15 ng/mL (≈ 0.176 nM)
[2]; K562
  IC50: 4 ng/mL (≈ 4.68 nM)
[3]
  IC50: 2 ng/mL (≈ 2.34 nM)

## B12-P-Hippuric acid-4,7,10-trioxa-1,13-tridecanediamine e-cyanocobalamin monocarboxylic acid conjugate [B12 P-Hippuric acid]
[4]
  Binding to TCII: substantially as great as for control vitamin B12
[5]
  Bioactivity: bioactive

## cyanocobalamin [B12]
[1]
  Cytotoxicity, HL60 Promyelocytic leukemia: 152 ng/mL
[2]
  Cytotoxicity, K562 Erythroleukemia: 250 ng/mL
[3]
  Cytotoxicity, KARPAS-291 Lymphoma: 294 ng/mL
[6]
  Solubility in acetone, ether, and chloroform: insoluble
  Solubility in lower alcohols and phenol: moderately soluble
[6]; room temperature
  Solubility in water: 12 mg/mL
[7]
  Stability in aqueous solutions: quite stable

## p-iodohippuryl-1,12-diaminododecane conjugated to cyanocobalamin-e-carboxylate
[5]
  Bioactivity: most bioactive conjugate studied
